Patent US5985926A, “Method for inhibiting intracellular viral replication” (Cell Therapeutics, Inc., priority 1997, dated 1999)

How the values were obtained:
NFκB = NFκB activation in 293tat cells, electrophoretic mobility shift assay; format: cell-based, human; settings: CT2576 12 μM, TNF-α 40 ng/ml or IL-1β 1 ng/ml
Description: (§1) Nuclear extracts (A) from 293tat cells were tested by EMSA for activation of NFκB. A radiolabeled 40-mer covering the NFκB sequences in the HIV promoter was used as a probe. Cells were incubated with CT2576 at 12 μM, human TNF-α at 40 ng/ml or IL-1β at 1 ng/ml, or pre-incubated for 30 min. with CT2576 and then stimulated with TNF-α or IL-1β for 18 hr prior to making extracts. RNA was extracted from 293tat cells (B) after treatment with CT2576 without or with TNF-α or IL-1β for 18 hr. Northern blots analysis were performed using probes derived from AP cDNA and G3PDH cDNA as a control for normalization of mRNA level. AP activity was determined in cell supernatants from the various samples.
(§2) NFκB binding activity in nuclear extracts (Dignam et al., Nucleic Acids Res. 11:1475-1489, 1983) of cells was measured by electrophoretic mobility-shift assay (EMSA) (Carthew et al., Cell 43:439-448, 1985) using 5'-labeled double-stranded synthetic DNA with two NF-κB motifs. Northern blot analysis was performed with total RNA run on 1% agarose/formaldehyde gel and probed with ^32 P-labeled cDNA of AP and glyceraldehyde-3-phosphate dehydrogenase (G3PDH).

[1] = test system: phosphatidic acid (PA) subspecies in 293tat cells; assay: PA composition of 293tat cells by HPLC; format: cell-based, human
Description: One must first quantitatively and qualitatively separate PAs from the other lipids found in serum by a chemical extraction of lipids and high performance liquid chromatography (HPLC) to separate and detect PAs. […] Briefly, the method of Bligh et al. involves an organic extraction of lipids from biological tissue homogenates or fluids. One volume of sample and three volumes of methanol:chloroform (2:1) are vigorously shaken for 2 min. One volume of chloroform is added and then shaken vigorously for 30 sec. One volume of water is added and then shaken vigorously for 30 sec. The mixture is filtered and the upper aqueous layer is discarded. The lower organic layer contains a mixture of lipid classes. The method of Folch et al. involves the extraction of lipids from biological tissue homogenates or body fluids. One volume of sample plus 20 volumes of chloroform:methanol (2:1) are vigorously shaken for 2 min. The mixture is filtered and an amount of 0.1 N KCl equal to 20% of the extraction mixture volume is added and the mixture is shaken vigorously for 2 min. The aqueous and organic phases are allowed to separate. The upper aqueous layer is discarded. The lower organic layer contains a mixture of lipid classes. […] This method involves separation of lipids into their major classes by normal phase (silica) high performance liquid chromatography (HPLC). A 5 micron, 25 cm×0.45 cm silica HPLC column is connected to a binary solvent delivery system followed with a UV detector. The lipid sample is injected on the column and a solvent gradient is run at 1.0 ml/min. The solvent gradient is hexane:isopropanol:water in the proportions 3:4:0.75 run isocratically for 3 min, then ramped to hexane:isopropanol:water in the proportions 3:4:1.4 in 15 min, then run isocratically at the same proportions for 15 min. Detection is at 206 nm.
One of the steps after cell activation involves the hydrolysis of phosphatidylcholine (PC), the major phospholipid of cellular membranes, by phospholipases C and D, leading to the generation of second messengers, such as PA and DG, in the signal transduction cascade.

[2] = test system: HIV-LTR promoter in 293-EBNA cells; assay: AP reporter expression in 293-EBNA cells with HIV-LTR plasmids, TNF-α stimulation; format: cell-based, HIV; human cells
Description: FIG. 14 illustrates the effect of tat and TNF-α on HIV-LTR-mediated reporter gene expression in 293-EBNA cells. The y-axis refers to the relative amount of AP reporter gene activity present in the culture media of 293-EBNA cells after transient transfection with various plasmids. Freshly trypsinized 293-EBNA cells at 10^4 cells per sample were transfected with 2 μg of either pHIV.AP, pHIV2.AP, or pHIV3.AP alone or in combination with pSV2tat72 or pHIV.tat using the cationic lipid DOTAP. The plasmids pHIV.AP, pHIV2.AP, and pHIV3.AP contain nucleotides -453 to +80, -107 to +80, and -80 to +80 of the HIV-LTR sequence respectively. Transfected cells were plated in 96-well microtiter plates at 2,000 cells per well. The cell culture media were changed 24 hr later into new medium. The samples were incubated for another 24 hr with or without TNF-α (20 ng/ml). 2 μl of medium from each well was used for AP assay. The height of each column represents the mean of triplicate samples with error bar indicating the standard deviation of the mean.
AP reporter gene activity expressed in 293-EBNA cells transfected with either pHIV.AP alone or in combination with pSV2tat72, pHIV.tat or with TNF-α stimulation is shown in FIG. 14. The plasmid pHIV.AP contains the full-length HIV-LTR sequence that extends from nucleotides -453 to +80. The expression level of AP was low using the pHIV.AP construct alone, indicating the presence of negative regulatory elements in the HIV-LTR sequence. Induction with TNF-α increased the AP expression level by about 4 fold. The AP expression level increased by 15 to 70 fold in the presence of the tat expression plasmids pHIV.tat or pSV2tat72. […] TNF-α and tat in combination enhanced the AP expression level by two fold when using the pSV2tat72 construct, and by ten fold when using the pHIV.tat construct, but the final levels of AP activity were similar.

AP mRNA in 293tat cells = assay: AP mRNA level in 293tat cells, Northern blot; format: cell-based, human; settings: with TNF-α or IL-1β
Description: as §1, §2

[3] = test system: HIV-LTR promoter (tat transactivation) in 293-EBNA cells; assay: AP reporter gene expression from HIV-LTR promoter with tat expression vector, 293-EBNA cells; format: cell-based, HIV; human cells
Description: The plasmid construct, pHIV.AP, using the human immunodeficiency virus (HIV) long terminal repeat (LTR) promoter (derived from pU3R-III CAT, Sodroski et al., Science 227:171, 1985) to direct the expression of the sPAP reporter gene, was made by replacing the CMV promoter region from pCMV.AP with the HIV-LTR promoter. PHIV.AP was co-transfected with pSV2tat72, an expression vector for the 72 amino acids tat protein from HIV (Frankel and Pabo, Cell 55:1189-1193, 1988), into 293-EBNA cells (Invitrogen). The cultured cells were treated with various concentrations of the compounds. The expression of the alkaline phosphatase (AP) reporter gene in the individual cultures was measured by following change in absorbance at 405 nm of the cell conditioned media in the presence of a suitable substrate (e.g., ortho-nitrophenol phosphate) (Berger et al., Gene 66:1-10, 1988).
We set up a cell-based system with a cell line cotransfected with an expression plasmid using HIV-1-LTR promoter to direct synthesis of AP reporter gene and an expression plasmid to direct synthesis of the first 72 amino acids of tat protein. Plasmid pREP7 (Invitrogen) was converted to pREP7b by deleting 2,040 bp EBNA-1 coding region and by replacing the pBR322 origin of replication (ori) with the pBluescript KS (Stratagene) ori region. The cDNA for secreted placental alkaline phosphatase (AP) was generated by PCR with the primers (5'-[…]-3')(SEQ ID NO. 3) and (5'-[…]-3') (SEQ ID NO. 4)using the plasmid pGEM-4Z/PLAP489 (American Type Culture Collection) as the template. The 2,000 bp Xba I-Sal I fragment obtained was ligated into a Nhe I/Xho I vector derived from pREP7b to generate the plasmid pREP7b.AP. The 44 bp Xba I-Bgl II fragment from plasmid pMEP4 (Invitrogen)and the 36 bp BamH I-Kpn I fragment from pREP7 were ligated into the Xba I-Kpn I vector fragment from pREP7b.AP to generate the plasmid pMCS.AP. The 720 bp Xho I-Hind III fragment encoding the HIV-LTR promoter from the plasmid pU3R-III-CAT (Sodroski et al., Science 227:171-173, 1985) was ligated into the Xho I-Hind III vector fragment of PMCS.AP to generate the plasmid pHIV.AP. The CMV promoter was derived from the 600 bp Spe I-Asp718 I fragment from pCEP4 (Invitrogen). The 360 bp SV40 early promoter fragments were produced from pSV2tat72 (Frankel et al., Cell 55:1189-1193,1988) by PCR using the primers (5'-[…]-3') (SEQ ID NO. 5) and (5'-[…]-3') (SEQ ID NO. 6). The 480 bp phosphoglycerate kinase (PGK) promoter fragment was amplified from human placental genomic DNA (Promega, Madison, Wis.) based on published sequence (Pfeifer et al., Science 246:810-813, 1990) using the primers (5'-[…]-3') (SEQ ID NO. 7) and (5'-[…]-3') (SEQ ID NO. 8). The above fragments were ligated into the Xba I-Asp718 I vector fragment of pHIV.AP to generate pHIV2.AP, pHIV3.AP, pCMV.AP, pSVE.AP and PPGK.AP respectively. The tat-expression plasmid directed by HIV-LTR promoter, pHIV.tat, was generated by inserting the 400 bp EcoRV-HindIII fragment from pHIV.AP into the PvuII-HindIII vector fragment from pSV2tat72 (Frankel et al., Cell 55:1189-1193, 1988).
Transient transfections with various expression plasmids were performed on a human kidney embryonic cell line 293-EBNA (Invitrogen) using the cationic lipid DOTAP (Boehringer Mannheim). The cell culture media were changed 24 hr after transfection into a serum-free medium AIM V (Life Technologies) before addition of compounds or TNF-α (PeproTech) at the appropriate concentrations. AP activity measured by a colorimetric assay (Berger et al., Gene 66:1-10, 1988) was performed 19-24 hr later.

[4] = Viability of 293-EBNA cells (dye not stated); settings: human
[5] = test system: CMV promoter in 293-EBNA cells; assay: AP reporter gene expression from CMV promoter, 293-EBNA cells stably transfected with pCMV.AP; format: cell-based, human cytomegalovirus; human cells; settings: Homo sapiens, 293-EBNA; FIG. 8; read-out: concentration inhibiting AP activity by 50% (CMV assay)
Description: An assay for measuring the anti-viral activity of the compounds involves testing the abilities of the compounds to inhibit gene expression directed by specific viral promoters in cell lines. Specifically, a plasmid construct, pCMV.AP, using the human cytomegalovirus (CMV) enhancer and promoter to direct the expression of the secreted human placental alkaline phosphatase reporter gene were transformed into a tumor cell line (e.g., 293-EBNA cells). The cultured cells were treated with various concentrations of the compounds. The expression of the alkaline phosphatase (AP) reporter gene in the individual cultures can then be measured by following the change in absorbance at A405 of the cell conditioned media in the presence of a suitable substrate (e.g., ortho-nitrophenol phosphate) (Berger et al., Gene 66:1,1988).
The construction of expression vectors for secreted placental alkaline phosphatase (sPAP) was performed by obtaining a mammalian episomal expression vector pBL3, derived from the plasmids pMEP4 and pCEP4 (Invitrogen Corp). Specifically, a 600 bp Spe I--Kpn I fragment spanning the CMV promoter from pCEP4 and a 9500 bp Xba I--Kpn I vector fragment from pMEP4 were isolated and ligated together to form pBL3. Full length sPAP cDNA was amplified by PCR using the plasmid pGEM4Z/SEAP (ATCC) as template with primers 5'-[…]-3' (SEQ ID NO. 1) and 5'-[…]-3' (SEQ ID NO. 2). The PCR product was then digested with Xba I and Sal I and inserted between the Nhe I site and the Xho I site within the multiple cloning region of pBL3. The resulting plasmid was designated as PCMV.AP.

[6] = Viability of 293-EBNA cells, Alamar Blue; format: cell-based, human; settings: human, 293-ebna cells; read-out: LD50 (CMV assay, FIG. 9)
Description: (§3) Cell viability was measured by a colorimetric assay that uses Alamar Blue dye (Alamar, Inc.) to report cell proliferation, viability and cytotoxicity. This vital dye indicates cell activity by serving as substrate for mitochrondrial dehydrogenases for the formation of soluble dyes which can be quantitated by determining the difference in absorbance between A570 and A600 using a plate reader.
as §3, with “[…]” for “colorimetric”
This example illustrates that CT2576 suppressed both tat-dependent and TNF-α induced HIV-LTR transcription with an IC50 of approximately 10 μM. Study of the effects of CT2576 on cell toxicity was performed using the Alamar Blue™ dye (Alamar Biosciences) according to the manufacturer's instructions. CT2576 was not toxic to 293-EBNA cells at concentrations up to 35 μM. To show CT2576 can inhibit HIV expression, CT2576 was tested for the ability to block HIV p24 antigen expression in chronically or acutely infected cells. Specifically, CT2576 inhibited the TNF-α and IL-6 induced and the constitutive expression of HIV in the chronically infected U1 cells and in peripheral blood lymphocytes (PBL) freshly infected with a HIV strain from a clinical isolate with an IC50 of approximately 1 μM. Pharmacological inhibition of synthesis of selected PL may therefore be a novel therapeutic approach to suppression of HIV replication.

TNF-α
activation of NFκB (NFκB): NFκB was activated | increase of C14-16 saturated acyl chain PA peak ([1]; TNF-α 45 sec): up to 80% | C14-16 saturated PA peak, share of total far UV absorbing lipids after TNF-α ([1]; TNF-α 45 sec (from 5.4%)): 9% | fold enhancement of AP expression by TNF-α with pHIV.tat ([2]; TNF-α and tat in combination, pHIV.tat construct): ten | fold enhancement of AP expression by TNF-α with pSV2tat72 ([2]; TNF-α and tat in combination, pSV2tat72 construct): two | fold increase of AP expression level by TNF-α ([2]; pHIV.AP alone): about 4 fold | AP transcript / mRNA steady-state level (AP mRNA in 293tat cells): induction of AP transcripts

CCCCCCCCCCCCNCC(O)CCCCCCCn1c(=O)c2c(ncn2C)n(C)c1=O (stereo not drawn) [CT2573, 1-(9-dodecylamino-8-hydroxynonyl)-3,7-dimethylxanthine]
inhibition of AP expression (HIV-LTR promoter) ([3]; 293-EBNA cells, HIV promoter, in words): did not affect AP activity | IC50 ([3]; Homo sapiens, 293-EBNA, read-out: concentration inhibiting AP expression by 50%): 1 to 4 µM | CC50 [4]: ~5 µM

CCCCCCCCNCC(O)CCCCCCCCCN1C(=O)Cc2ccccc2C1=O (stereo not drawn) [CT1115, N-(11-octylamino-10-hydroxyundecyl)homophthalimide]
IC50 [5]: 2 to 6 µM | CC50 [6]: ~5 µM
